Data taken from publication PMC10755736, “Modulating Liquid–Liquid Phase Separation of Nck Adaptor Protein against Enteropathogenic Escherichia coli Infection” (ACS Central Science, 2023).
Non-standard residues stand in square brackets, D forms with d. Residues, ends and D or L forms follow the SMILES beside them. *: point of attachment. Biotin = O=C1N[C@H]2[C@H](CS[C@H]2CCCCC(=O)*)N1; Benzoyl(3-SO2F) = O=C(c1cccc(S(=O)(=O)F)c1)*; pY = N[C@@H](Cc1ccc(OP(=O)(O)O)cc1)C(=O)O; Dap = NC[C@H](N)C(=O)O

Experiments:
[1] = test system: EPEC infection of Caco-2 cells; experiment: EPEC infection assay of Caco-2 cells (CFU counts); type: cell-based, enteropathogenic Escherichia coli; conditions: with L17E-mediated delivery, L17E 40 μM
Experimental: Lastly, to examine whether pretreatment of Caco-2 cells with L17E/p1 could prevent EPEC infection, we first established a bacterial infection assay (Figure 7a). Caco-2 cells were pretreated with L17E/p1 for 2 h. After excess peptides were removed, Caco-2 cells were then infected with EPEC at different multiplicity of infection (MOI) values (MOI is commonly defined as the ratio of infectious bacteria to cells in a culture) for 3 h, and extra bacterial cells were removed from the culture. Next, gentamicin was added to the cell culture to remove EPEC that are merely attached to the surface of Caco-2 cells, leaving only engulfed EPEC inside Caco2 cells to be counted (gentamicin treatment will not kill intracellular bacteria due to its cellular impermeability). After gentamicin was washed away, cells were lysed to release EPEC cells inside, and the cell lysates were diluted to count the number of EPEC cells as colony-forming units (cfu) on agar plates.
Caco-2 cells were seeded in a 24-well plate at a density of 1×10^4 cells for 24 h and pretreated with peptide complexes for 2 h. After washing with DMEM, cells were infected with EPEC at selected MOI values for 3 h at 37 ℃. Cells were then treated with gentamicin ([…]) for 2 h and lysed with 1% […]
Triton X-100 for 15 min. […]
The sample was loaded onto 12% SDS/PAGE glycerol gel and then transferred onto a PVDF membrane using Bio-Rad […]. The membrane was blocked and incubated with a rabbit anti-Nck antibody (Abcam, Hong Kong) at 4 °C overnight, followed by a n anti -rabbit HRP -labeled secondary antibody (Abcam, Hong Kong).
SPSS 23.0 statistical software was used to process experimental data. The differences between mean ± SEM of three independent experiments were assessed by Student's t -test.

Nck-SH2 = conditions: cited from earlier work
From the text: Phosphorylated Tir is known to bind to Nck-SH2. […] Also, the sequence of nephrin contains three Tyr-containing sequences that are similar to those of the Tir peptide: HLYDEV, PLYDEV, and GIYDQV (the potential phosphorylation sites are underscored), with a hydrophobic residue at the pY-1 site, and negatively charged residues at pY+1 and/or pY+2 (Figure 2c). Therefore, we reason that phosphorylation at these Tyr turns nephrin into p-nephrin, a ...

Nck = molecular target: T1, Nck (Homo sapiens, UniProt P16333); experiment: Crosslinking of peptides with recombinant Nck in vitro (SDS-PAGE, Western blotting); type: binding; conditions: peptide:Nck 5:1, 37 °C, PBS, 1 h; SDS-PAGE and anti-biotin Western blotting
T1 construct: GST (followed by PreScission/HRV 3C site) (N, cleaved yes); made in house; host or cells: E. coli BL21(DE3)
From the text: Although peptide Y474 can block Nck-mediated LLPS, the requirement of a high concentration of the blocker peptide is hard to achieve inside the cell. […] The side chains of the Nck lysine residues are pointing toward the residues at pY+1 and pY+2 positions with distances of only 4 to 6 Å. This unique feature gives us an opportunity to design covalent blockers for Nck-SH2 by installing electrophiles at the pY+1 or pY+2 positions to enable a proximal conjugation reaction with one of the lysine residues. Covalent blockage through the characteristic lysine residues will maximize the specificity of the inhibitor toward Nck-SH2. As sulfonyl fluoride has been reported to react with proteinaceous nucleophiles such as lysine, histidine, or cysteine,[34] we installed a sulfonyl fluoride group on the side chain of diaminopropionic acid, giving an unnatural amino acid X1 at different positions such as pY+1 (Asp6) and pY+3 (Val8) of peptide EEHIpYDEVAAD. Besides the amino acid X1, we also included α-chloroacetyl-carrying amino acids X2 and X3, which may also react with proteineous nucleophiles. Electrophile-containing reactive peptides p1 to p11 were synthesized with a biotin tag at the N-termini (Figure 4b). After the reactive peptides were incubated with recombinant Nck protein at a 5:1 ratio at 37 °C in PBS for 1 h, the formation of covalently linked Nck–peptide conjugates could be observed, shown as new protein bands with molecular weights higher than that of Nck based on denatured SDS-PAGE and Western blotting analysis against biotin (Figure 4c). […] At 37 °C in PBS buffer, the 1:1 reaction efficiency reached 50% in 2 min (Figure S4 in the Supporting Information).
Figure 4 Covalently reactive peptides designed based on a Tir peptide. (a) Crystal structure of Nck-SH2 in complex with a peptide EEHIpYDEVAAD from EPEC protein Tir (PDB: 2CI9). (b) List of synthetic reactive peptides. (c) Unnatural amino acids in the peptides. (d) SDS-PAGE (top) and Western blotting (bottom) analyses showing covalent conjugation of the peptides with Nck. […]

CC[C@H](C)[C@H](NC(=O)[C@H](Cc1c[nH]cn1)NC(=O)[C@H](CCC(=O)O)NC(=O)[C@H](CCC(=O)O)NC(=O)[C@@H]1CCCN1)C(=O)N[C@@H](Cc1ccc(OP(=O)(O)O)cc1)C(=O)N[C@@H](CC(=O)O)C(=O)N[C@@H](CCC(=O)O)C(=O)N[C@H](C(=O)N[C@@H](C)C(=O)N[C@@H](C)C(=O)N[C@@H](CC(=O)O)C(=O)N1CCC[C@H]1C(=O)NCC(N)=O)C(C)C [Y474]
blockage of EPEC invasion/infection of Caco-2 cells [1]: can block EPEC invasion to Caco-2 cells

EEHIpYDEVAADP [12-residue pY-containing Tir peptide]
binding to Nck-SH2 (Nck-SH2): strong binder to Nck-SH2

CC[C@H](C)[C@H](NC(=O)[C@H](Cc1c[nH]cn1)NC(=O)[C@H](CCC(=O)O)NC(=O)[C@H](CCC(=O)O)NC(=O)CCCC[C@@H]1SC[C@@H]2NC(=O)N[C@@H]21)C(=O)N[C@@H](Cc1ccc(OP(=O)(O)O)cc1)C(=O)N[C@@H](CC(=O)O)C(=O)N[C@@H](CCC(=O)O)C(=O)N[C@H](C(=O)N[C@@H](C)C(=O)N[C@@H](C)C(=O)N[C@@H](CNC(=O)c1cccc(S(=O)(=O)F)c1)C(N)=O)C(C)C [p7] (Biotin-EEHI[pY]DEVAA[Dap](Benzoyl(3-SO2F))-NH2)
reactivity with Nck (Nck): noticeable reactivity
